Where only a bound is given, the exact number is not on record here.

`CC(=O)OCCCCN(C)CCN(C)C(=O)[C@@H]1CCCN1S(=O)(=O)c1ccc(Cl)c(COc2cccc3c(-n4ccnc4)cc(C)nc23)c1Cl` registered a melting point of 76 °C. Consider `O=C1CCC(N2C(=O)c3ccc(CNC(=O)c4ccc5ccccc5n4)cc3C2=O)C(=O)N1` (stereo not given), for which the melting point was 205 to 207 °C. `COc1ccc(C2(c3cccc(C)n3)OCCCO2)cc1OC` had a melting point of 124 to 126 °C. `CN1C(=O)CN(c2ccc(OCc3ccccc3)cc2)NC1=O`: the melting point lay in the range of 224 to 227 °C. `COc1ccc(N2CCN(C)CC2)cc1-c1cnn2c(N)c(-c3cccc(Cl)c3)c(C)nc12` returned a melting point of 116 to 121 °C. The molecule `CC1(C)OC(c2cccs2)CN1C(=O)C(Cl)Cl` (stereo not given) showed a melting point of 104 to 105 °C. `O=C(O)c1cc(OCCCc2cc(-c3ccc(C(F)(F)F)cc3)no2)nn1-c1ccccc1`: the melting point was 145 to 146 °C. On to `COc1ccc2[nH]cc(CC(=O)N3CCN(c4ccc(NC(=N)c5cccs5)cc4)CC3)c2c1`, for which the melting point fell in the range of 221 to 222 °C. In turn, `O=C(c1ccc(CBr)cc1)c1c(Cl)cccc1Cl` gave a melting point of 126 to 130 °C.

The molecule `CN1CCN(c2cc(C(=O)Nc3ccc4c(c3)-c3c(c(C(N)=O)nn3-c3ccc5c(c3)OCO5)CC4)c(Cl)cn2)CC1` showed a melting point of 305 to 307 °C. For the molecule `COC(=O)c1csnc1-c1cc(C(F)(F)F)cc(C(F)(F)F)c1`, the melting point is 45 to 46.5 °C. On to `O=C(NN=Cc1cc(Cl)cc(Cl)c1O)c1cccc(OC(F)(F)F)c1`, for which the melting point lay within 180 to 182 °C. `O=c1[nH]c(N2CCCC(CO)C2)cc2ccccc12` (stereo not given): the melting point was 143 to 144 °C. `COc1cc(C)nc(C(=O)O)n1` came in with a melting point of 140 to 141 °C. To `CCOC(=O)C(=NO)c1ccc(F)cc1` belongs 117 to 118 °C; to `COCCN(CCOC)c1nc2cc(-c3ccc(OC)cc3)nnc2c2ccccc12`, 127 to 128 °C; to `O=C(c1ccc(I)cc1)c1ccc(-c2ccc(Cl)cc2)cc1`, 218 °C. Turning to `O=C(c1ccccc1)N1CCC2(CC1)Cc1ccccc1C2=O`, the melting point was 149 to 154 °C. Regarding `N#Cc1ccc2c(c1)CCC=C2c1cncs1`, the melting point fell in the range of 78 to 79 °C. The value for `CCOC(=O)c1ccc(C(F)(F)F)cc1SC` was 44 to 45 °C; that for `ClCC1(CCl)Cc2cccc3cccc1c23` was 212 to 213 °C. `O=C1C(=Cc2ccc([N+](=O)[O-])s2)CCc2cc(OCCn3ccnc3)ccc21`: the melting point is > 240 °C. In turn, `CCC(=O)c1cc(C(=O)O)c2cc(Cc3ccc(F)cc3)cnc2c1O` had a melting point of 235 to 237 °C.

Take `O=C(Nc1ccc(C(F)(F)F)cc1)Nc1cccc(Oc2ccccc2)c1`: the melting point was 178 to 181 °C. With `CCCCOC(=O)[C@H]1CN(c2ccc3c(c2)oc(=O)n3C(C)C)C(=O)O1`, the melting point fell in the range of 86 to 89 °C.

In the case of `Nc1ccc(C(=O)c2cccc(N)c2)cc1`, the melting point lay within 121 to 123 °C. The value for `CC(C)C1N(C)CCCN1C(=O)NC(C)C1CC(N=C=O)CC(C)(C)C1` (stereo not given) was 180 to 192 °C; that for `O=C(CCCCOc1ccc(O)cc1)C(F)(F)F` was 63 to 64 °C; that for `C=CCn1nnc2cc(F)c(-n3c(=O)cc(C(F)(F)F)n(C)c3=O)cc21` was 136 to 138 °C. To `COc1cc([N+](=O)[O-])c(C=O)cc1OCc1ccccc1` belongs 131 to 132 °C; to `C=C(c1ccc(C)cc1)c1ccc(N2CCCC2)cc1`, 134 to 136 °C; to `N#CCCSN1C(=O)CCC1=O`, 110 to 112 °C. Molecule `c1ccc(-c2ccc(-c3cn([C@H]4CN5CCC4CC5)nn3)s2)cc1` showed a melting point of 184 °C. `COC(=O)c1cccc2c1OC1CC(N=[N+]=[N-])C(O)C21` (stereo not given) gave a melting point of 150 to 152 °C.

For `O=c1ccccn1[C@@H]1c2cc(C(F)(F)F)ccc2OC(CF)(CF)[C@H]1O` (relative stereo), the melting point lay within 210 to 212 °C. For `O=C(OCc1ccc([N+](=O)[O-])cc1)N1CCC(O)CC1`, the melting point was in the range of 91.5 to 94 °C. The molecule `CN1Cc2c(C=O)ncn2-c2ccccc2C1=O` gave a melting point of 202 to 203 °C. `O=C1c2c(O)ccc(O)c2C(=O)c2c(NCCN3CCCCC3)ccc(NCCN3CCCCC3)c21` gave a melting point of 219 to 221 °C.

With `CC1C(Cl)(Cl)C1(C)C(=O)C(N)=O` (stereo not given), the melting point was in the range of 87 to 89 °C. Molecule `CC1(C)CC(NC(=O)Nc2ccccc2)c2cc(C#N)ccc21` (stereo not given) displayed a melting point of 150 to 152 °C. To `C#CC1N(C(=O)Oc2ccccc2)c2ccc(OC)cc2C23OC12CCCC3=O` (stereo not given) belongs 186 to 188 °C; to `Nc1c(CCO)cccc1C(=O)c1ccc(Br)cc1`, 126 to 127 °C. The value for `CCCCc1nc2ccccn2c(=O)c1-c1ccc(NC(=O)[C@@H]2CCCN2C(=O)OC(C)(C)C)cc1` was 179 to 187 °C; that for `Cc1cc(C)cc(NC(=O)c2ccc([N+](=O)[O-])cc2)c1` was 206 to 210 °C; that for `N#Cc1ccc(Sc2cc(Cl)ccc2Cl)c(S(=O)(=O)N2CCNCC2)c1` was 156 to 162 °C.

`Cc1ccc(CNC(=O)C2=C(C(=O)Nc3cc(OC4CCCC4)c(Cl)cc3F)CCCC2)cc1`: the melting point is 168 to 169 °C.

`Cn1cc(-c2nc3c(N[C@H]4[C@@H](C(N)=O)[C@@H]5C=C[C@H]4C5)c(Br)cnc3[nH]2)cn1` had a melting point of 255 to 258 °C. Molecule `COc1nccc2c1C(c1ccccc1C(F)(F)F)c1c(ccnc1OC(C)C)N2` (stereo not given) displayed a melting point of 183 to 185 °C.

On to `CCNCC1CCN(c2c(F)c(C)c3c(=O)c(C(=O)O)cn(C4CC4)c3c2F)C1` (stereo not given), for which the melting point lay within 198 to 199 °C. Consider `Cc1cc2c(cc1C(F)(F)F)N(C(=O)Nc1ccc(OCc3ccccn3)nc1)CC2`, for which the melting point lay within 219 to 220 °C.

For `CS(=O)(=O)c1ccc(-c2ccc(Cl)n2-c2ccc(F)cc2)cc1`, the melting point was 180 to 182 °C. `CN(C(=O)Nc1ccc(Cl)c(Cl)c1)S(=O)(=O)CCl` had a melting point of 119 °C. Molecule `CCOC(=O)c1cn(-c2cccc(O)c2)cn1` came in with a melting point of 164 to 165 °C. The molecule `COc1ccc2c(c1)-c1noc(O)c1CC2` had a melting point of 135 to 138 °C. To `CC(C)Cn1nc(-c2ccccc2)c(-c2ccccc2)c1CO` belongs 154 °C; to `COc1cc(-c2ccc(C3C(CCC(O)c4ccc(F)cc4)C(=O)N3c3ccc(F)cc3)cc2)cc(OC)c1OC` (stereo not given), 103 °C; to `Cc1cn2c(=O)c(C(=O)O)cnc2c2cc([N+](=O)[O-])ccc12`, 301 to 303 °C. The value for `COc1ccc(CCS(N)(=O)=S)cc1` (stereo not given) was 186 to 187 °C; that for `COc1ncccc1-c1cncc(OC2SCC(OC(C)=O)C(OC(C)=O)C2OC(C)=O)c1` (stereo not given) was 167 °C. Consider `CN1C(=O)Nc2c(Cl)cc(Cl)cc2C12NC(=O)NC2=O` (stereo not given), for which the melting point is > 280 °C. Regarding `O=C(O)c1ccc(CCn2ccn([C@H]3CCc4c(F)cc(F)cc4C3)c2=S)cc1`, the melting point was 222 to 224 °C.

`COC1CCC2C3CCC4CC(O)CCC4(C)C3CCC12C` (stereo not given) gave a melting point of 150 to 152 °C.

Consider `O=S(=O)(Cc1ccc(O)cc1)Cc1ccc(O)cc1`, for which the melting point worked out at 92 °C. With `c1ccc(-c2cn3ccccc3n2)cc1`, the melting point is 135 to 137 °C. Consider `COc1ccc(CNc2nc(-n3ccnc3)nc3sc(C)cc23)cc1OC`, for which the melting point came out at 207 °C. On to `Brc1ccc(-c2cccs2)s1`, for which the melting point lay in the range of 55 to 56 °C. For the molecule `CCOc1ccc(Nc2nc(Nc3ccc4c(c3)OCCO4)ncc2F)cc1`, the melting point lay within 164 to 167 °C.

Molecule `Cc1cccc(Cl)c1CCCOc1oc(-n2ccnc2C)nc1-c1ccc(Cl)cc1` yielded a melting point of 115 to 116 °C. `Cc1ccc(Oc2nc3ccccc3o2)c(=S)n1C` registered a melting point of 245 to 247 °C. `COc1cccc(N(C(=O)c2ccc(Br)s2)C2CC2)c1` returned a melting point of 60 °C.

On to `CC(C=CCOC(=O)c1ccc(C(N)=O)cc1)Oc1ccc(Oc2cnc3cc(Cl)ccc3n2)cc1` (stereo not given), for which the melting point was 144 to 148 °C. To `CC(C)n1nc(-c2cc(C(=O)O)c(=O)[nH]c2-c2ccccc2)ccc1=O` belongs 212 to 215 °C.

As to `O=c1oc(-c2cccc(S(=O)C(F)(F)F)c2)nc2ccccc12` (stereo not given), the melting point lay within 106 to 108 °C. `CC(C)C(C)(NC(=O)c1nc2ccccc2cc1C(=O)O)C(N)=O` (stereo not given): the melting point was 172 to 174 °C. In the case of `CCC1(c2cccc(S(=O)(=O)c3ccc(C(C)(C)C)cc3)c2)COC(C)(C)O1` (stereo not given), the melting point fell in the range of 108 to 110 °C. `O=C1CCC(c2ccc(CCCCNC(=O)c3cccnc3)cc2)=NN1` displayed a melting point of 178 to 179 °C. The molecule `CC1CCCC(C)N1C(=O)CSC#N` (stereo not given) displayed a melting point of 81 to 82 °C. For `COc1cc(OC)c(-c2cc3ccccc3s2)cc1/C=C/C(=O)c1ccc(Nc2c(N)c(=O)c2=O)cc1`, the melting point is > 260 °C. The value for `O=C(O)Cc1csc(NC(=O)C(F)(F)F)n1` was 117 to 120 °C; that for `CC(=O)Nc1ccc(OC2SCC(O)C(O)C2O)cc1` (stereo not given) was 238 °C. With `O=C(O)CS(=O)(=O)CCCCCCn1nc(-c2ccccc2)c(-c2ccccc2)c1-c1ccccc1`, the melting point was in the range of 154 to 155 °C.

`NCCC(O)(c1ccc(Cl)cc1)c1ccc(-c2ccc(Br)cc2)cc1` (stereo not given): the melting point is 154 to 155 °C. In the case of `CN(C)CCNS(=O)(=O)c1cccc([N+](=O)[O-])c1C(=O)O`, the melting point came to 193 °C. With `CCOc1ccc(-c2cc(Nc3ccc(OC)c(Cl)c3)nc(NC(C)=O)n2)cc1`, the melting point worked out at 214 °C. As to `C(#Cc1ccccc1)CCN1CCC(c2ccccc2)CC1`, the melting point lay in the range of 65 to 66 °C. `O=C1COC[C@@H](c2cccc(F)c2)N1` yielded a melting point of 119 to 121 °C. The value for `COC(=O)CCCc1cc2nc(Cl)ccc2n1S(=O)(=O)c1ccc(Cl)cc1` was 108 °C; that for `O=C1CCCN1Cc1ccc(F)cc1` was 37 to 38 °C; that for `CCOc1nc(=O)n(C(C)C)c(=O)[nH]1` was 170 to 171 °C.

`NCC(c1ccc(Cl)c(Cl)c1)C1CCCCC1O` (mixture of isomers): the melting point fell in the range of 117 to 118 °C.

Values taken from a melting point compilation (Tetko et al.; mined from patent text by program, amines drawn as free bases though some values may be those of a salt).
